Assay results from patent US6384077B1, “Highly purified EPA for treatment of schizophrenia and related disorders” (Laxdale Limited, priority 1999, dated 2002).

Key:
Assay type in all cases: in vivo, human
[1] = system: attention deficit hyperactivity disorder (ADHD); test: case report: child with ADHD; settings: two capsules per day, after two weeks
From the text: Attention deficit hyperactivity disorder (ADHD): ADHD and closely related conditions like attention deficit disorder and conduct disorders are commonly found in children. Occasionally they may be successfully treated by behaviour modification and other psychological techniques or by careful attention to diet. However, in most cases, paradoxical treatment with one of the stimulant drugs related in their action to amphetamine is required. Methylphenidate and dextroamphetamine are the commonest used. A child with serious ADHD since infancy was driving their parents to distraction. […] The parents were concerned about the long term consequences of stimulant drugs. The child was therefore tried on two capsules of pure ethyl-EPA per day. […] The child became less tense and irritable, less hyperactive, more open to reasoned discussion and enormously less disruptive both at home and school. Even when their methylphenidate was stopped, their behaviour remained improved.

schizophrenia [2] = test: case report: schizophrenia, fish oil switched to ethyl-EPA
From the text: This provided around 1.9 g/day of EPA and 0.6 g/day of DHA. They were not taking other antipsychotic drugs. […] However, when they did this the symptoms returned and it was concluded that they had to take around 2 g/day of EPA to remain well. When the purified ethyl-EPA became available, they were switched to 4×0.5 g capsules, also providing around 2 g/day. […] They therefore dropped the dose to 1 g/day.

[3] = system: panic and anxiety disorders; test: case histories: panic and anxiety disorders
Method: We have now treated several patients who have panic and anxiety disorders with purified ethyl-EPA with excellent effect. Three case histories follow. A person was disabled as a result of frequent and uncontrollable panic attacks and palpitations. […] They were then given a dose of 2 g per day of ethyl EPA as four 500 mg capsules. […] A person had suffered from mild anxiety and panic attacks for most of their life but these had become much worse over the previous few years in association with various problems with their children. Anxiolytics and antidepressants had only modest effects and their palpitations were uncontrolled even by relatively high doses of beta-blockers. Again they were treated with ethyl-EPA over a period of four months. […] The third patient was a housewife who had been through two divorces and was now in a long-term relationship. They had several panic attacks every week, sometimes in the middle of the night, and always accompanied by strong palpitations which were very worrying for them. These panic attacks were accompanied by depression. They were very reluctant to go out for fear of having an attack and this seriously disrupted their life. Again, antidepressants, beta-blockers and anxiolytics had had only limited beneficial effects. […] Sometimes, they felt that an attack of palpitations might be coming on but it rarely materialised. As a result, they felt increasing confidence and was able to resume a much more normal life.

Huntington's disease = test: randomised double blind trial of 96% pure ethyl-EPA in Huntington's disease; settings: 2 g/day, 6 months
Method: Because early Huntington's disease may present with schizophrenia-like features, a randomised trial of 96% pure ethyl-EPA was set up in seven severely disabled patients in the final stages of Huntington's disease. All required 24 hour nursing care, had severe movement disorders, were irritable and were partially demented. They were randomised on a double blind basis to receive 2 g/day ethyl-EPA or 2 g/day placebo for 6 months. […] In four of the patients, two on ethyl-EPA and two on placebo, the brain degeneration was assessed at the beginning and end of the study by magnetic resonance imaging (MRI). MRI allows an accurate assessment of the size of the lateral ventricles, the fluid-filled spaces within the cerebral hemispheres. As Huntington's disease progresses, the lateral ventricles enlarge indicating loss of brain tissue. In the two patients on placebo over 6 months the ventricles enlarged as expected.

schizophrenia [4] = test: case history: schizophrenia, E-EPA added to clozapine; settings: 2 g/day in addition to clozapine 900 mg/day
From the text: This mechanism is thought to be responsible for their rapid effects on the so-called “positive” symptoms of schizophrenia (such as hallucinations, delusions and thought disorder). […] The D2 blocking action is also responsible for many of the adverse effects of these drugs, which include extrapyramidal movement disorders, excess prolactin secretion, and tardive dyskinesias. Examples of widely used drugs in this class include chlorpromazine, thioridazine, haloperidol, pimozide, flupenthixol and sulpiride.
These may include blockade of one or more of the other dopamine receptors such as D1, D3 or D4, and also usually including blockade of one or more classes of serotonin receptors. […] They may also have actions at other receptors, including histamine, glutamate and acetyl choline receptors.
The patient was treated with clozapine, eventually reaching a maximum dose of 900 mg/day.
E-EPA in a dose of 2 g/day was then administered in addition to clozapine.

[5] = system: patients who had schizophrenia; test: randomised, placebo-controlled study of ethyl-EPA in clozapine-treated patients with schizophrenia (PANSS, MADRS); settings: 1 g or 2 g per day versus placebo, 12 weeks
From the text: Although the case reports of the effects of ethyl-EPA are convincing and in some cases dramatic, unequivocal proof of its efficacy must come from randomised, placebo-controlled trials. We therefore set up a randomised, placebo-controlled study of EPA in 34 patients who had schizophrenia according to the criteria set out in the American Psychiatric Association's Diagnostic and Statistical Manual of Mental Disorders (4th edition, DSM-IV). All of these patients were being treated with clozapine drugs but all remained seriously ill, with schizophrenic symptoms. Like many schizophrenics, some of the patients were also depressed. All were assessed at baseline and after 12 weeks using the Positive and Negative Symptom Scale for Schizophrenia (PANSS) and the Montgomery-Asberg Depression Rating Scale (MADRS). After giving informed consent, all the patients were randomised on a double blind basis to one of three groups: placebo, or 1 g or 2 g of ethyl-EPA per day in the form of 0.5 g capsules. Placebo and EPA capsules were indistinguishable from one another in appearance. All the patients improved to some degree so all the changes are percentage improvements

[6] = system: schizophrenia, drug-induced obesity; settings: ethyl-EPA in addition to olanzapine, six months
From the text: Obesity is another common side effect of antipsychotropic drugs. In this respect some of the newer drugs like olanzapine frequently seem to be even worse offenders than the typical neuroleptics. […] They preferred the olanzapine but it still left their withdrawn and unable to communicate normally with friends or family. To their distress it caused them to put on over 10 kg in weight. Their doctor decided to test ethyl-EPA in addition to olanzapine.

## CC/C=C\C/C=C\C/C=C\C/C=C\C/C=C\CCCC(=O)OCC [ethyl-EPA]
[1]
  behaviour in ADHD: substantial improvement in behaviour
Schizophrenia [2]; 1 g/day
  recurrence of symptoms after dose reduction: did not lead to a recurrence of symptoms
Schizophrenia [2]; 4x0.5 g capsules, around 2 g/day
  control of schizophrenia symptoms: controlled their symptoms very well
[3]; housewife, four months
  panic attacks and palpitations: dramatic reduction in their panic attacks and palpitations
[3]; person, 2 g per day, three months
  panic attacks and palpitations: almost absent
[3]; person, four months
  anxiety and panic attacks: much less severe
Huntington's disease; three patients
  clinical course of Huntington's disease: improved
Huntington's disease; two patients
  lateral ventricle size by MRI: reduction in lateral ventricle size
Schizophrenia [4]
  clozapine-induced hypersalivation: considerably reduced
  effect on schizophrenic illness: dramatic within two weeks
[5]
  side effects: no reported side effects attributable to the E-EPA
[6]
  withdrawn state: gradually improved
